Measurements taken from patent US20170152239A1, “BENZAMIDE AND HETEROBENZAMIDE COMPOUNDS” (PFIZER INC., priority 2012, published 2017).

molecular target: WT EZH2 (EZH2 4 protein complex: EZH2, EED, SUZ12, RbAp48) (Homo sapiens, UniProt O75530+Q09028+Q15022+Q15910); assay: WT EZH2 nucleosome assay; format: biochemical; conditions: nucleosome assay, 5 nM EZH2 4-protein complex, 1.5 μM SAM; read-out: WT EZH2 IC50
Method: Nucleosome Assay Protocol:
A. Compound preparation • 1. Prepare 10 mM stock solutions in 100% DMSO from solid material • 2. Serial dilute 10 mM compound stocks either 2 or 3-fold in 100% DMSO to generate compounds for 11 point dose response
B. Reagent preparation • 1. Prepare 1× assay buffer containing 100 mM Tris pH 8.5, 4 mM DTT and 0.01% Tween-20 • 2. Dilute purified HeLA oligonucleosomes and recombinant histone H1 (New England Biolabs) in assay buffer to 1.67×. • 3. Dilute EZH2 4 protein complex (EZH2, EED, SUZ12, RbAp48) to 3.5× in assay buffer • 4. Prepare 10×^3H SAM solution in assay buffer using 0.94 μCi/well of radioactive SAM (Perkin Elmer) and sufficient non-labeled SAM (Sigma) for 1.5 μM final concentration. • 5. Dilute TCA to 20% in DI water
C. Enzyme reaction • 1. Final reaction conditions are 5 nM EZH2 4-protein complex, 1.5 μM SAM, 25 μg/mL oligonucleosomes, 50 nM rH1 in a 50 μl reaction volume. • 2. Add 1 μl of diluted compound to the assay plate (96-well V-bottom polypropylene plates) or 1 μl of DMSO for control wells. • 3. Add 30 μl of nucleosomes to the assay plate • 4. Add 14 μl of EZH2 4 protein complex to the assay plate • 5. Add 5 μl of ^3H SAM to start the reaction. • 6. Stop the reaction after 60 minutes with the addition of 100 μl of 20% TCA • 7. Transfer 150 μl of quenched reaction into a prepared filterplate (Millipore #MSIPN4B10) • 8. Apply vacuum to the filterplate to filter the reaction mix through the membrane. • 9. Wash the filterplate with 8×200 μl of PBS, blot dry and dry in an oven for 30 minutes • 10. Add 50 μl of microscint-20 scintillation fluid (Perkin Elmer) to each well, wait 30 minutes and count on a liquid scintillation counter.
D. Data analysis • 1. IC50 values were determined by fitting the data to a 4-parameter IC50 equation using proprietary curve fitting software.
Wild type (WT) EZH2% Effect at 20 μM and IC50 values (μM) generated in WT EZH2 or EZH2PRC2 mutant Y641N nucleosome assays are provided in Table 3 below. A blank entry in the table indicates the data was not generated in that assay.

Chain of WT EZH2 (EZH2 4 protein complex: EZH2, EED, SUZ12, RbAp48) (Q15910 whole entry): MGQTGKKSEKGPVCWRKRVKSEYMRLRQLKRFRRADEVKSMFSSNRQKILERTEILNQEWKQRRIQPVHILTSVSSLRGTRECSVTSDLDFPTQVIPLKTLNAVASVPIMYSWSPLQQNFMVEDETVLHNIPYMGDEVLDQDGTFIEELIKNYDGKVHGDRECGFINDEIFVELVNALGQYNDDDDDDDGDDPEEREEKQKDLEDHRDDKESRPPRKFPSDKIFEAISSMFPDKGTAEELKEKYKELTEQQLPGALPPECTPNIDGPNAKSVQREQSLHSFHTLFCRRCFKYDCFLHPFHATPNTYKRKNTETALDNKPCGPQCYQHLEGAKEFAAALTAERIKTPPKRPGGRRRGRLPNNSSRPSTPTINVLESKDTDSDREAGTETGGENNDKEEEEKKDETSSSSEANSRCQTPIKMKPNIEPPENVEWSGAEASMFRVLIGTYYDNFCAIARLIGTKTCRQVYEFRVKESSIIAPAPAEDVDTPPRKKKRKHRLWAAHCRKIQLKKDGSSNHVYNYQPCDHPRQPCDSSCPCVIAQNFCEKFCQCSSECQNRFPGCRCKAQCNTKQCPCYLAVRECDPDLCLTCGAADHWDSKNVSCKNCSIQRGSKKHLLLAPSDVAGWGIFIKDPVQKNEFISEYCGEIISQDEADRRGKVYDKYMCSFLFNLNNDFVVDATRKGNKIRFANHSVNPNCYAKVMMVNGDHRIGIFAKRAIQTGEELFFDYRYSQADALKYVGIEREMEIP
Chain of WT EZH2 (EZH2 4 protein complex: EZH2, EED, SUZ12, RbAp48) (O75530 whole entry partner): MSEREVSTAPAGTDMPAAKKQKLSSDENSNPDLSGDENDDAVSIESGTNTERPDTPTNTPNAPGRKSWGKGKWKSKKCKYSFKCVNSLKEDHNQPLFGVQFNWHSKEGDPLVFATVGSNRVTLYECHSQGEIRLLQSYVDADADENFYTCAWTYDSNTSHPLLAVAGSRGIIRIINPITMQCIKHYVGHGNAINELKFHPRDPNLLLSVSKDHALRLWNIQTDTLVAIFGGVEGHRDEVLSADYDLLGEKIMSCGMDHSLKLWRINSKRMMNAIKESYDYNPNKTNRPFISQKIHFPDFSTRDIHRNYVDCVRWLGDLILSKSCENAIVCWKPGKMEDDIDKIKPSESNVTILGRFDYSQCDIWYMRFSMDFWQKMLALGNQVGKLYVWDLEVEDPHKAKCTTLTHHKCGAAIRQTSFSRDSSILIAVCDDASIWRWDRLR
Chain of WT EZH2 (EZH2 4 protein complex: EZH2, EED, SUZ12, RbAp48) (Q15022 whole entry partner): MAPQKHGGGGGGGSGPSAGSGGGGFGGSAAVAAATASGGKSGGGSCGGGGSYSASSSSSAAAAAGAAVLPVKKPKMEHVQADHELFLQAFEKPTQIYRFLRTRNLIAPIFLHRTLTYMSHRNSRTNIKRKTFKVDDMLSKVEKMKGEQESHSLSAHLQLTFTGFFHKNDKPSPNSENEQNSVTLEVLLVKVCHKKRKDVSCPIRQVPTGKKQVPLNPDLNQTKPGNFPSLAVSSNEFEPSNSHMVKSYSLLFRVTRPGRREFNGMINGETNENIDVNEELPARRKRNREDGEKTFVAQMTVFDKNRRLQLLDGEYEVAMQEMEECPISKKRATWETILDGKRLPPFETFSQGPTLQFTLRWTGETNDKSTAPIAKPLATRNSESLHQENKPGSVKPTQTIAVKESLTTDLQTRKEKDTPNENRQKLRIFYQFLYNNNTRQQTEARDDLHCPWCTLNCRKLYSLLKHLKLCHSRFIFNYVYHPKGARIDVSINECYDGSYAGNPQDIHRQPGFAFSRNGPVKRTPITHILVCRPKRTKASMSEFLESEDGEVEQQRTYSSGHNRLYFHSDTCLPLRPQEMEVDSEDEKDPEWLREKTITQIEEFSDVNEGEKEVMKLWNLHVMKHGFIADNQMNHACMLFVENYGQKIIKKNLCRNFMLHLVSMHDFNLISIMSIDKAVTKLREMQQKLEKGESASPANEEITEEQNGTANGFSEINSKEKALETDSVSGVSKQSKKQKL
Chain of WT EZH2 (EZH2 4 protein complex: EZH2, EED, SUZ12, RbAp48) (Q09028 whole entry partner): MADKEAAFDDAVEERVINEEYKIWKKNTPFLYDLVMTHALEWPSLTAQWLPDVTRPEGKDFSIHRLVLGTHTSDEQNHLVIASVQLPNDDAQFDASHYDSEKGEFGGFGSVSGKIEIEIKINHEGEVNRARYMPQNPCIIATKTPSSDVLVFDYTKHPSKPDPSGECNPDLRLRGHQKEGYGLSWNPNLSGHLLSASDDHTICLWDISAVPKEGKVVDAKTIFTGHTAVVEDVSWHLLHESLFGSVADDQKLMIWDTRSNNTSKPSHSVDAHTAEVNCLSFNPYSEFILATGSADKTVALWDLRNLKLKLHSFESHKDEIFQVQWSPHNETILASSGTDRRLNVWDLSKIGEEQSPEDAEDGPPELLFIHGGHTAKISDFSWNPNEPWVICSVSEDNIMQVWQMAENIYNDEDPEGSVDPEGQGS

Row | Structure (SMILES) | IC50 [µM]
1 | Cc1cc(C)c(CNC(=O)c2nc(N3CCOCC3)nc(N3CCC[C@@H]3C)c2C)c(=O)[nH]1 [Example 81, N-[(4,6-dimethyl-2-oxo-1,2-dihydropyridin-3-yl)methyl]-5-methyl-6-[(2S)-2-methylpyrroli-din-1-yl]-2-morpholin-4-ylpyrimidine-4-carboxamide] | 7.74
2 | Cc1cc(C)c(CNC(=O)c2ncnc(N3C4CCC3CC4)c2C)c(=O)[nH]1 [Example 83, 6-(7-azabicyclo[2.2.1]hept-7-yl)-N-[(4,6-dimethyl-2-oxo-1,2-dihydropyridin-3-yl)methyl]-5-methyl-pyrimidine-4-carobxamide] | 7.96
3 | Cc1[nH]c(=O)c(CNC(=O)c2cc(Cl)cc(-c3ccnn3C)c2C)c2c1CCCC2 [Example 84, 5-chloro-2-methyl-N-[(1-methyl-3-oxo-2,3,5,6,7,8-hexahydroiso-quinolin-4-yl)methyl]-3-(1-methyl-1H-pyrazol-5-yl)benzamide] | 8.14
4 | Cc1cc(C)c(CNC(=O)c2ccnc(OC(C)C)c2C)c(=O)[nH]1 [Example 87, N-[(4,6-dimethyl-2-oxo-1,2-dihydropyridin-3-yl)methyl]-2-isopropxy-3-methylisonico-tinamide] | 9.76
5 | Cc1cc(C)c(CNC(=O)c2nc(OCCO)nc(-c3ccnn3C)c2C)c(=O)[nH]1 [Example 90, N-[(4,6-dimethyl-2-oxo-1,2-dihydropyridin-3-yl)methyl]-2-(2-hydroxyethoxy)-5-methyl-6-(1-methyl-1H-pyrazol-5-yl)pyrimidine-4-carboxamide] | 12
6 | Cc1cc(C)c(CNC(=O)c2ccnc(-c3ccnn3C)c2Cl)c(=O)[nH]1 [Example 91, 3-chloro-N-[(4,6-dimethyl-2-oxo-1,2-dihydropyridin-3-yl)methyl]-2-(1-methyl-1H-pyrazol-5-yl)isonicotin-amide] | 12.1
7 | Cc1cc(C)c(CNC(=O)c2nc(N3CCCC3)nc(-c3ccnn3C)c2C)c(=O)[nH]1 [Example 92, N-[(4,6-dimethyl-2-oxo-1,2-dihydropyridin-3-yl)methyl]-5-methyl-6-(1-methyl-1H-pyrazol-5-yl)-2-pyrrolidin-1-ylpyrimidine-4-carboxamide] | 12.8
8 | Cc1cc(C)c(CNC(=O)c2nc(O[C@@H]3CCOC3)nc(-c3ccnn3C)c2C)c(=O)[nH]1 [Example 93, N-[(4,6-dimethyl-2-oxo-1,2-dihydropyridin-3-yl)methyl]-5-methyl-6-(1-methyl-1H-pyrazol-5-yl)-2-[(3R)-tetrahydro-furan-3-yloxy]pyrimi-dine-4-carboxamide] | 14.5
9 | Cc1cc(C)c(CNC(=O)c2nc(C3CC3)nc(-c3ccnn3C)c2C)c(=O)[nH]1 [Example 94, 2-cyclopropyl-N-[(4,6-dimethyl-2-oxo-1,2-dihydropyridin-3-yl)methyl]-5-methyl-6-(1-methyl-1H-pyrazol-5-yl)pyrimidine-4-carboxamide] | 16
10 | CCC1CCCN1c1ncnc(C(=O)NCc2c(C)cc(C)[nH]c2=O)c1C (stereo not shown) [Example 95, N-[(4,6-dimethyl-2-oxo-1,2-dihydropyridin-3-yl)methyl]-6-(2-ethylpyrrolidin-1-yl)-5-methylpyrimi-dine-4-carboxamide] | 16.5
11 | Cc1cc(C)c(CNC(=O)c2nc(N(C)C)nc(N3CCC[C@@H]3C)c2C)c(=O)[nH]1 [Example 96, 2-(dimethylamino)-N-[(4,6-dimethyl-2-oxo-1,2-dihydropyridin-3-yl)methyl]-5-methyl-6-[(2S)-2-methyplyrrolidin-1-yl]pyrimidine-4-carboxamide] | 16.5
12 | Cc1cc(C)c(CNC(=O)c2ccnc(N3[C@H](C)CC[C@@H]3C)c2Cl)c(=O)[nH]1 [Example 97, 3-chloro-N-[(4,6-dimethyl-2-oxo-1,2-dihydropyridin-3-yl)methyl]-2-[(2R,5S)-2,5-dimethylpyrroli-din-1-yl]iso-nicotinamide] | 16.9
13 | Cc1cc(C)c(CNC(=O)c2nc(OCCN3CCC(F)(F)CC3)nc(-c3ccnn3C)c2C)c(=O)[nH]1 [Example 98, 2-[2-(4,4-difluoropiperi-din-1-yl)ethoxy]-N-[(4,6-dimethyl-2-oxo-1,2-dihydropyridin-3-yl)methyl]-5-methyl-6-(1-methyl-1H-pyrazol-5-yl)pyrimidine-4-carboxamide] | 17.3
14 | Cc1cc(C(=O)NCc2c(C)cc(C)[nH]c2=O)c(C#N)c(OC(C)C)n1 [Example 99, 3-cyano-N-[(4,6-dimethyl-2-oxo-1,2-dihydropyridin-3-yl)methyl]-2-isopropoxy-6-methyliso-nicotinamide] | 17.6
15 | Cc1cc(C)c(CNC(=O)c2nc(OC(C)C)nc(-c3ccnn3C)c2C)c(=O)[nH]1 [Example 100, N-[(4,6-dimethyl-2-oxo-1,2-dihydropyridin-3-yl)methyl]-2-isopropoxy-5-methyl-6-(1-methyl-1H-pyrazol-5-yl)pyrimidine-4-carboxamide] | 17.6
16 | Cc1cc(C)c(CNC(=O)c2nc(OCCN3CC[C@H](F)C3)nc(-c3ccnn3C)c2C)c(=O)[nH]1 [Example 101, N-[(4,6-dimethyl-2-oxo-1,2-dihydropyridin-3-yl)methyl]-2-{2-[(3S)-3-fluoropyrrolidin-1-yl]ethoxy}-5-methyl-6-(1-methyl-1H-pyrazol-5-yl)pyrimidine-4-carboxamide] | 18.4
17 | CCOc1nc(C(=O)NCc2c(C)cc(C)[nH]c2=O)c(C)c(-c2ccnn2C)n1 [Example 102, N-[(4,6-dimethyl-2-oxo-1,2-dihydropyridin-3-yl)methyl]-2-ethoxy-5-methyl-6-(1-methyl-1H-pyrazol-5-yl)pyrimidine-4-carboxamide] | 18.6
18 | Cc1cc(C)c(CNC(=O)c2nc(OCCN3CC[C@@H](F)C3)nc(-c3ccnn3C)c2C)c(=O)[nH]1 [Example 103, N-[(4,6-dimethyl-2-oxo-1,2-dihydropyridin-3-yl)methyl]-2-{2-[(3R)-3-fluoropyrrolidin-1-yl]ethoxy}-5-methyl-6-(1-methyl-1H-pyrazol-5-yl)pyrimidine-4-carboxamide] | 19.1
19 | Cc1cc(C)c(CNC(=O)c2nc(-c3cnn(C)c3)nc(N3CCOC[C@@H]3C)c2C(F)(F)F)c(=O)[nH]1 [Example 104, N-[(4,6-dimethyl-2-oxo-1,2-dihydropyridin-3-yl)methyl]-6-[(3S)-3-methylmorpho-lin-4-yl]-2-(1-methyl-1H-pyrazol-4-yl)-5-(trifluoromethyl) pyrimidine-4-carboxamide] | 19.4
20 | Cc1cc(C)c(CNC(=O)c2nc(OCCN3CCC(F)(F)C3)nc(-c3ccnn3C)c2C)c(=O)[nH]1 [Example 105, 2-[2-(3,3-difluoropyrroli-din-1-yl)ethoxy]-N-[(4,6-dimethyl-2-oxo-1,2-dihydropyridin-3-yl)methyl]-5-methyl-6-(1-methyl-1H-pyrazol-5-yl)pyrimidine-4-carboxamide] | 19.8
21 | Cc1cc(C)c(CNC(=O)c2ncnc(N3CC[C@H](C)C3)c2C)c(=O)[nH]1 [Example 107, N-[(4,6-dimethyl-2-oxo-1,2-dihydropyridin-3-yl)methyl]-5-methyl-6-[(3S)-3-methylpyrrolidin-1-yl]pyrimidine-4-carboxamide] | 21.8
22 | COc1nc(C(=O)NCc2c(C)cc(C)[nH]c2=O)c(C)c(-c2ccnn2C)n1 [Example 108, N-[(4,6-dimethyl-2-oxo-1,2-dihydropyridin-3-yl)methyl]-2-methoxy-5-methyl-6-(1-methyl-1H-pyrazol-5-yl)pyrimidine-4-carboxamide] | 22.2
